The text below walks through data of ChEMBL document CHEMBL1201862, “PubChem BioAssay data set” (2004).

Among the test systems are IGROV-1; NCI-H522; KM12; SF-268; SNB-75; DU-145; HCT-15; OVCAR-5; SK-MEL-5; RPMI-8226; HOP-92; CAKI-1; OVCAR-3; K562; SW-620; SNB-19; SK-OV-3; LOX IMVI; NCI/ADR-RES.
What all share (assay): DTP human tumour cell line panel, 48 h

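In this assay, cells in 96-well plates receive the compound at five concentrations for 48 hours. Endpoints are linearly interpolated between the surrounding concentrations. Here, GI50 denotes the concentration required for 50% inhibition of growth.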 Active and inactive are the calls of the source. Cut-off read from the data, not from the text of the source: active = GI50 up to about 1.1 µM and inactive = higher.

Usually GI50 stands for the concentration that inhibits growth by half. `NC1=C(Cl)C(=O)c2ccccc2C1=O`: the GI50 with IGROV-1 was 9.82 µM (inactive); with NCI-H522 it was 5.22 µM (inactive); with KM12 it was 8.05 µM (inactive); in the experiment on SF-268, 11.2 µM (inactive); in the experiment with SNB-75, 11.3 µM (inactive); in the experiment on DU-145, 1.87 µM (inactive). For the same compound, the GI50 with HCT-15 was 3.46 µM; with OVCAR-5 it was 10.3 µM (inactive); in the experiment with SK-MEL-5 it was 0.834 µM (active); in the experiment on RPMI-8226 it was 18.4 µM (inactive); in the experiment with HOP-92, 14.6 µM (inactive); with CAKI-1 it was 17.3 µM (inactive). Besides, the GI50 was 2.45 µM (inactive) in the experiment with OVCAR-3; 8.11 µM (inactive) in the experiment with K562; 5.42 µM (inactive) in the experiment on SW-620; 9.46 µM (inactive) with SNB-19; 2.52 µM (inactive) with SK-OV-3; 2.28 µM (inactive) in the experiment with LOX IMVI.

Consider `C=CCNC(=O)NCCCCC(NC(C)=O)C(=O)NCc1ccccc1` (stereo not drawn), for which the GI50 with IGROV-1 was > 100 µM (inactive); with NCI-H522 it was > 100 µM (inactive); in the experiment on KM12 it was > 100 µM (inactive); with SF-268, > 100 µM (inactive); in the experiment with SNB-75, > 100 µM (inactive); in the experiment on HCT-15, over 100 µM. Further, the GI50 in the experiment with OVCAR-5, with SK-MEL-5, with RPMI-8226, in the experiment with HOP-92, in the experiment on CAKI-1 and in the experiment on OVCAR-3 was > 100 µM (inactive) each time. Moreover, the GI50 in the experiment on K562, in the experiment on SW-620, with SNB-19, in the experiment on SK-OV-3 and in the experiment on LOX IMVI was > 100 µM (inactive) throughout.

Regarding `COc1ccc(COCCOCc2nc(C#N)c(N)o2)cc1`, the GI50 is > 100 µM (inactive) in the experiment with IGROV-1; 6.79 µM (inactive) in the experiment with NCI-H522; > 100 µM (inactive) in the experiment with KM12; > 100 µM (inactive) in the experiment with SF-268; > 100 µM (inactive) with SNB-75; > 100 µM (inactive) in the experiment on DU-145. The GI50 in the experiment on HCT-15 is over 100 µM; with OVCAR-5, > 100 µM (inactive); in the experiment on SK-MEL-5 it was > 100 µM (inactive); with RPMI-8226, > 100 µM (inactive); in the experiment with HOP-92 it was > 100 µM (inactive); in the experiment on CAKI-1, 89.9 µM (inactive). Besides, the GI50 in the experiment with OVCAR-3, with K562, in the experiment on SW-620, with NCI/ADR-RES, in the experiment with SK-OV-3 and in the experiment on LOX IMVI was > 100 µM (inactive) in each case.

`CCC1(O)C(=O)OCc2c1cc1n(c2=O)Cc2c-1nc1ccccc1c2OC` (stereo not drawn): the 50% growth inhibitory concentration (GI50) was 0.174 µM (active) with IGROV-1; 0.0242 µM (active) in the experiment on NCI-H522; 0.167 µM (active) in the experiment with KM12; < 0.01 µM (active) with SF-268; < 0.0156 µM (active) in the experiment with SNB-75; 0.117 µM with HCT-15. Further, the GI50 was 0.0711 µM (active) with OVCAR-5; 0.0184 µM (active) with SK-MEL-5; < 0.0212 µM (active) with RPMI-8226; 0.106 µM (active) in the experiment with HOP-92; < 0.01 µM (active) in the experiment with CAKI-1; 0.257 µM (active) in the experiment with OVCAR-3. The GI50 in the experiment on K562 was < 0.0305 µM (active); in the experiment with SW-620, < 0.01 µM (active); in the experiment with SNB-19 it was < 0.01 µM (active); in the experiment with SK-OV-3, 0.0386 µM (active); in the experiment on LOX IMVI, < 0.01 µM (active).

For the compound `Cc1ccc(NC(=O)CC/C(CC(=O)C(C)(C)C)=N\NC(=O)C[n+]2ccccc2)cc1C`, the GI50 in the experiment on IGROV-1 is > 100 µM (inactive); in the experiment on NCI-H522, > 100 µM (inactive); with KM12, > 100 µM (inactive); in the experiment with SF-268 it was > 100 µM (inactive); in the experiment with SNB-75 it was > 100 µM (inactive); in the experiment on HCT-15, 53 µM. Moreover, the GI50 was > 100 µM (inactive) in the experiment with OVCAR-5; > 100 µM (inactive) in the experiment on SK-MEL-5; 87.7 µM (inactive) in the experiment with RPMI-8226; > 100 µM (inactive) with HOP-92; > 100 µM (inactive) in the experiment on CAKI-1; > 100 µM (inactive) in the experiment on OVCAR-3. The GI50 is 46.9 µM (inactive) with K562; > 100 µM (inactive) with SW-620; > 100 µM (inactive) in the experiment with SNB-19; > 100 µM (inactive) in the experiment with SK-OV-3; 99.8 µM (inactive) in the experiment with LOX IMVI.

For `O=C(O)CNS(=O)(=O)c1ccc(NC(=O)CI)cc1`, the GI50 is 26.5 µM (inactive) with IGROV-1; 2.16 µM (inactive) in the experiment with NCI-H522; 24.8 µM (inactive) with KM12; 18.8 µM (inactive) with SF-268; 17.1 µM (inactive) in the experiment on SNB-75; 17.6 µM in the experiment on HCT-15. Further, the GI50 in the experiment on OVCAR-5 is 27.6 µM (inactive); in the experiment on SK-MEL-5 it was 22.2 µM (inactive); in the experiment with RPMI-8226, 15.7 µM (inactive); with HOP-92, 19.4 µM (inactive); in the experiment with CAKI-1, 40.7 µM (inactive); with OVCAR-3, 24 µM (inactive). Also, the GI50 is 10.2 µM (inactive) in the experiment on K562; 13.2 µM (inactive) with SW-620; 58.2 µM (inactive) with SNB-19; 33.8 µM (inactive) with SK-OV-3; 19 µM (inactive) in the experiment with LOX IMVI.

Consider `COP(=O)(OC)C(NC(=O)C(F)(F)F)(c1ccccc1)C(F)(F)F` (stereo not drawn), for which the GI50 in the experiment on IGROV-1 was > 100 µM (inactive); with NCI-H522, > 100 µM (inactive); in the experiment with KM12 it was > 100 µM (inactive); in the experiment on SF-268, > 100 µM (inactive); with SNB-75, > 100 µM (inactive); in the experiment with HCT-15 it was over 100 µM. Moreover, the GI50 with OVCAR-5, with SK-MEL-5, with RPMI-8226, with HOP-92, in the experiment with CAKI-1 and in the experiment on OVCAR-3 was > 100 µM (inactive) in each case. The GI50 in the experiment with K562, with SW-620, with SNB-19, in the experiment with SK-OV-3 and in the experiment on LOX IMVI was > 100 µM (inactive) in each case.

`COC(CO[Si](C)(C)N[Si](C)(C)OCC(OC)c1ccccc1)c1ccccc1` (stereo not drawn): the GI50 in the experiment on IGROV-1 is > 100 µM (inactive); with KM12 it was > 100 µM (inactive); in the experiment with SNB-75 it was > 100 µM (inactive); with DU-145, > 100 µM (inactive); in the experiment on HCT-15, over 100 µM; in the experiment on OVCAR-5, > 100 µM (inactive). The GI50 in the experiment on SK-MEL-5, in the experiment on RPMI-8226, in the experiment with HOP-92, with CAKI-1, in the experiment with OVCAR-3 and with K562 was > 100 µM (inactive) each time. In addition, the GI50 with SW-620, in the experiment with SNB-19, in the experiment with NCI/ADR-RES, in the experiment on SK-OV-3 and in the experiment with LOX IMVI was > 100 µM (inactive) throughout.

Consider `CC1(C)OCC(C2OC(OC(=O)c3ccc([N+](=O)[O-])cc3)C3OC(C)(C)OC23)O1` (stereo not drawn), for which the GI50 with IGROV-1 was > 100 µM (inactive); in the experiment on NCI-H522, 75.5 µM (inactive); in the experiment on KM12, > 100 µM (inactive); in the experiment with SF-268, 20.5 µM (inactive); in the experiment on SNB-75, 16.6 µM (inactive); with DU-145, > 100 µM (inactive). Further, the GI50 was over 100 µM with HCT-15; > 100 µM (inactive) in the experiment with OVCAR-5; > 100 µM (inactive) in the experiment on SK-MEL-5; > 100 µM (inactive) in the experiment on RPMI-8226; > 100 µM (inactive) in the experiment on CAKI-1; > 100 µM (inactive) with OVCAR-3. The GI50 with K562 was > 100 µM (inactive); with SW-620 it was > 100 µM (inactive); with SNB-19, 59 µM (inactive); with NCI/ADR-RES, 69.5 µM (inactive); with SK-OV-3 it was > 100 µM (inactive); in the experiment with LOX IMVI, > 100 µM (inactive).

In the case of `O=c1oc2nc(-c3ccccc3)cc(C(F)(F)F)c2n1Cc1ccccc1`, the GI50 with IGROV-1 was 13.4 µM (inactive); in the experiment with NCI-H522, 4.33 µM (inactive); with KM12, 2.84 µM (inactive); with SF-268, > 25 µM (inactive); in the experiment with DU-145 it was 11.3 µM (inactive); in the experiment with HCT-15 it was 1.87 µM. Also, the GI50 in the experiment with OVCAR-5 was > 100 µM (inactive); with SK-MEL-5, 5.42 µM (inactive); in the experiment with RPMI-8226, 4.41 µM (inactive); in the experiment on HOP-92, 85.5 µM (inactive); in the experiment on CAKI-1, 7.8 µM (inactive); in the experiment on OVCAR-3, 4.06 µM (inactive). Moreover, the GI50 was 1.53 µM (inactive) in the experiment with K562; 6.5 µM (inactive) in the experiment on SW-620; 6.52 µM (inactive) with SNB-19; 3.42 µM (inactive) with NCI/ADR-RES; 7.8 µM (inactive) in the experiment on SK-OV-3; 9.71 µM (inactive) in the experiment on LOX IMVI.

`CCOC(=O)/C(C)=C(/O)C(=O)OCC`: the GI50 in the experiment on IGROV-1 was > 100 µM (inactive); in the experiment with NCI-H522 it was > 100 µM (inactive); in the experiment with KM12, > 100 µM (inactive); in the experiment on SF-268 it was > 100 µM (inactive); in the experiment on SNB-75, > 100 µM (inactive); with HCT-15 it was over 100 µM. The GI50 in the experiment on OVCAR-5, in the experiment on SK-MEL-5, with RPMI-8226, with HOP-92, in the experiment with CAKI-1 and in the experiment with OVCAR-3 was > 100 µM (inactive) in each case. Moreover, the GI50 in the experiment on K562, with SW-620, in the experiment with SNB-19, in the experiment with SK-OV-3 and in the experiment on LOX IMVI was > 100 µM (inactive) throughout.

With `CC(C)(O)C(O)COc1c2c(cc3oc(=O)ccc13)OCO2` (stereo not drawn), the GI50 with IGROV-1 is > 100 µM (inactive); in the experiment with NCI-H522, > 100 µM (inactive); in the experiment on KM12 it was > 100 µM (inactive); with SF-268, > 100 µM (inactive); in the experiment on SNB-75, 71.9 µM (inactive); in the experiment on HCT-15 it was over 100 µM. Also, the GI50 in the experiment with OVCAR-5, in the experiment on SK-MEL-5, in the experiment on RPMI-8226, in the experiment with HOP-92, in the experiment with CAKI-1 and in the experiment on OVCAR-3 was > 100 µM (inactive) each time. Further, the GI50 in the experiment on K562, in the experiment on SW-620, in the experiment with SNB-19, in the experiment on SK-OV-3 and in the experiment on LOX IMVI was > 100 µM (inactive) each time.
